Positions of bridges follow the written chain, without caps; N, C: chain ends. Non-standard residues stand in square brackets, D forms with d. No end group written: not given here.
How the values were obtained:
OltF = experiment: Prenylation of Trp present at N terminal with OltF (Example 23); type: biochemical, Planktothrix; details: 100 μM OltF, 2.1 mM DMAPP, 37° C., 18 hours (FIG. 19, FIG. 20)
Procedure: The cyclic peptide shown below was obtained by translation and synthesis under the following (Conditions 32) in the artificial translation system developed by the present inventors. The translated mixture thus obtained was then reacted (prenylated) under the following (Conditions 33).
(Conditions 32) • 19aa-mix (19 kinds of proteinogenic amino acids other than M)]: 0.5 mM • ClAc-D-Tyr-tRNA^fMetCUA: 50 μM • Reaction: 37° C. and 30 minutes in an artificial translation-system solution. • Scale: 2.5 μL scale
(Conditions 33) • Translated mixture amount: 2.5 μL (mixture obtained under (Conditions 32)) • OltF: 100 μM • DMAPP: 2.1 mM • Reaction: 37° C., 18 hours • Scale: 5.7 μL scale

[1] = system: KgpF immobilized onto magnetic beads; experiment: Modification of artificial cyclic peptides with KgpF immobilized onto magnetic beads, solid phase (Example 18; Table 17); type: biochemical, Microcystis aeruginosa; set-up: key: 5: strong intensity; 4: medium intensity; 3: weak intensity; 2: very weak intensity; 1: no peak; N/A: not observed; details: KgpF Solid phase (magnetic beads) 72 μM, 4° C., 14 hours
Sequence of KgpF immobilized onto magnetic beads (as listed by the source): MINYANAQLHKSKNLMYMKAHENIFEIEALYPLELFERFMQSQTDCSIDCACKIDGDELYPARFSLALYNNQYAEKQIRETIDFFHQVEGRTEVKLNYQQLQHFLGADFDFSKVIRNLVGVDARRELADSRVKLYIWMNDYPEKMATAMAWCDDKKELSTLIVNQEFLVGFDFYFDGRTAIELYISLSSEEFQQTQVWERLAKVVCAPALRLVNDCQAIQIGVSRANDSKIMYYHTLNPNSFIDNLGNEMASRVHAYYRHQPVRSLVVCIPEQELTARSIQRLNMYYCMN
Source text: Dynabeads His-Tag Isolation and Pulldown (Invitrogen) was brought into contact with KgpF having a His-tag added N terminal and the KgpF was immobilized onto the magnetic beads. […] When it exceeded a predetermined amount, immobilization reached saturation.
(§1) The artificial cyclic peptides shown in Table were synthesized under (Conditions 25) and were brought into contact with KgpF in solid phase under (Conditions 26). In addition, the same peptides were reacted in liquid phase under conditions shown in (Conditions 13) and (Conditions 14) except that the prenylation reaction time was changed to 14 hours.
(Conditions 25) • FIT system: v8s/v11.1 • 19aa-Met: 0.5 mM • ClAc-D-Tyr-tRNA^fMetCUA: 90 μM • Reaction: 37° C., 60 min. • Scale: 2.5 μL scale
(§2) After the above reaction was performed, the reaction product was incubated at 25° C. for 12 minutes.
(§3) Then, a cyclization reaction was performed under the following conditions. • Translated mixture amount: 2.5 μL (mixture obtained by the above reaction) • EDTA: 18 mM • Reaction: 42° C., 60 min. • Scale: 2.75 μL scale
(Conditions 26) • Translated mixture amount: 2.75 μL (mixture obtained under (Conditions 25)) • KOH: 6.0 mM • Mg(OAc)2: 9.0 mM • Tris-HCl (pH 8.3) 15 mM • KgpF immobilized onto magnetic beads: 72 μM • DMAPP: 2 mM • Reaction: 4° C., 14 hours, rotation mixing

KgpF [2] = experiment: Modification of the same peptides with KgpF in liquid phase, Conditions 13/14 with 14 hours (Example 18; Table 17); type: biochemical, Microcystis aeruginosa; set-up: key: 5: strong intensity; 4: medium intensity; 3: weak intensity; 2: very weak intensity; 1: no peak; N/A: not observed; details: KgpF Liquid phase 160 μM
Procedure: (Conditions 13) • FIT system: v8s/v11.0 • 19aa-Met: 0.5 mM • ClAc-D-Tyr-tRNA^fMetCUA: 90 μM • Reaction: 37° C., 60 min. • Scale: 2.5 μL scale
as §2, §3
(Conditions 14) • Translated mixture amount: 2.75 μL (mixture obtained under (Conditions 13)) • KOH: 6.0 mM • Mg(OAc)2: 9.0 mM • Tris-HCl (pH 8.3) 15 mM • KgpF: 160 μM • DMAPP: 2 mM • Reaction: 0° C., 20 hours
as §1

MetAP1 = MetAP1 (Homo sapiens, UniProt P53582); experiment: MetAP1 inhibition test of prenylated cyclic peptide (probe fluorescence); type: biochemical; details: prenylated peptide at 1 μM, 5 μM or 10 μM; cofactor Mn2+ or Co2+ 100 μM; MetAP1 1 μM; 37° C., 120 min (FIG. 13)
Procedure: A MetAP1 inhibition test was performed in vitro using the prenylated Met2, Met3a-L, and Met3-1 at concentrations of 1 μM, 5 μM or 10 μM in the presence of a MetAP1 cofactor Mn^2+ or Co^2+. In the test, enzymatic activity was measured by detecting probe fluorescence, that is, fluorescence emitted depending on the enzymatic activity of MetAP1.
(Conditions) • Scale: 20 μL • Cyclic peptide: 1, 5, 10 μM • MnCl2 or CoCl2: 100 μM • MetAP1 enzymatic activity probe: 1 μM • MetAP1: 1 μM • Tris (pH7.6): 25 mM • NaCl: 75 mM • Reaction: 37° C., 120 min.
After the reaction, the fluorescence intensity of the probe was measured using a plate reader.

KgpF [3] = experiment: Prenylation of translated thioether-closed artificial cyclic peptides with KgpF, MALDI-TOF-MS analysis (Examples 1-9; 37° C., 18 hours); type: biochemical, Microcystis aeruginosa; details: Examples 4-7: 160 μM KgpF, 2 mM DMAPP
Procedure: With regards to each of KgpF and OltF, heterogeneous co-expression of a gene synthesized after optimizing the codon of a gene derived from a producing strain was performed in Escherichia coli, followed by purification to obtain a prenylation enzyme.
The analysis was performed using UltrafleXtreme (Bruker Daltonics) or Autoflex II (Bruker Daltonics) and peptide calibration standard II (Bruker Daltonics).
In short, six kinds in total of peptides were obtained by translation and synthesis under (Conditions 1) of the artificial translation system developed by the present inventors. The peptides thus obtained were then reacted with 14.7 μM KgpF at 37° C. for 18 hours in the system shown in (Conditions 2). “DMAPP” used in (Conditions 2) is dimethylallyl pyrophosphoric acid.
(Conditions 1) • FIT system: v7s/v8.0.3 • 19aa-Met: 0.5 mM • ClAc-D or L-Trp-tRNA^fMetCUA: 90 μM • Reaction: 37° C., 60 min. • Scale: […] scale
(Conditions 2) • Translated mixture amount: 2.5 μL (mixture obtained under (Conditions 1)) • KgpF: 14.7 μM • DMAPP: 2 mM • Total amount: 15.7 μL • Reaction: 37° C., 18 hours
The YG280 sequences having the steric configuration of the N terminal Trp serving as an initiation residue of D-form and those of L-form were synthesized, so that two kinds of peptides were prepared in total. These two kinds of artificial cyclic peptides were obtained by translation and synthesis in the artificial translation system (Conditions 3) developed by the present inventors. The peptides thus obtained were then reacted with 53, 160, and 580 μM KgpF in a system shown in (Conditions 4) at 37° C. for 18 hours.
(Conditions 3) • FIT system: v7s/v8.0.3 • 19aa-Met: 0.5 mM • ClAc-D or L-Trp-tRNA^fMetCUA: 120 μM • Reaction: 37° C., 3 hours • Scale: 2.5 μL scale
(Conditions 4) • Translated mixture amount: 2.5 μL (mixture obtained under (Conditions 3)) • KgpF: 53, 160, 580 μM • DMAPP: 2 mM • Reaction: 37° C., 18 hours
(§4) The above three kinds of artificial cyclic peptides were obtained by translation and synthesis in the artificial translation system (Conditions 5) developed by the present inventors. The peptides thus obtained were then reacted with KgpF in the system shown below in (Conditions 6) at 37° C. for 18 hours.
(Conditions 5) • FIT system: v7s/v8.0.3 • 19aa-Met: 0.5 mM • ClAc-D or L-Trp-tRNA^fMetCUA: 90 μM • Reaction: 37° C., 60 min. • Scale: 2.5 μL scale
(Conditions 6) • Translated mixture amount: 2.5 μL (mixture obtained under (Conditions 5)) • KgpF: 160 or 580 μM • DMAPP: 2 mM • Reaction: 37° C., 18 hours
as §4, with “six” for “three”, “7)” for “5)”, “with 160 μM” for “with”, “shown” for “shown below”, “8)” for “6)”
(Conditions 7) • FIT system: v7s/v9.1 • 19aa-Met: 0.5 mM • ClAc-D-Tyr-tRNA^fMetCUA: 90 μM • Reaction: 37° C., 60 min. • Scale: 2.5 μL scale
(Conditions 8) • Translated mixture amount: 2.5 μL (mixture obtained under (Conditions 7)) • KgpF: 160 μM • DMAPP: 2 mM • Reaction: 37° C., 18 hours
as §4, with “9)” for “5)”, “with 160 μM” for “with”, “shown” for “shown below”, “10)” for “6)”
(Conditions 9) • FIT system: v7s/v9.1 • 19aa-Met: 0.5 mM • ClAc-D-Tyr-tRNA^fMetCUA: 90 μM • Reaction: 37° C., 60 min. • Scale: 2.5 μL scale
(Conditions 10) • Translated mixture amount: 2.5 μL (mixture obtained under (Conditions 9)) • KgpF: 160 μM • DMAPP: 2 mM • Reaction: 37° C., 18 hours
The above artificial cyclic peptides were obtained by translation and synthesis in the artificial translation system (Conditions 11) developed by the present inventors. […]

KgpF v 3.1 = experiment: Prenylation of artificial cyclic peptides with 10 μM KgpF v 3.1 (Example 11; Table 7); type: biochemical, Microcystis aeruginosa; set-up: key: 5: strong intensity; 4: medium intensity; 3: weak intensity; 2: very weak intensity; 1: no peak; N/A: not observed; details: KgpF v 3.1 10 μM
Procedure: Reaction of the artificial cyclic peptide shown in Table 7 was made under conditions similar to (Conditions 11) and (Conditions 12) except that v8s/v11.1 was used as FIT system, KgpF v 3.1 was used as a prenylation modification enzyme, and the concentration of the KgpF v 3.1 was set at 10 μM. Here, KgpF v 3.1 is an enzyme having a higher purification degree and more improved specific activity than KgpF used under (Conditions 12).

Sequence of OltF (as listed by the source): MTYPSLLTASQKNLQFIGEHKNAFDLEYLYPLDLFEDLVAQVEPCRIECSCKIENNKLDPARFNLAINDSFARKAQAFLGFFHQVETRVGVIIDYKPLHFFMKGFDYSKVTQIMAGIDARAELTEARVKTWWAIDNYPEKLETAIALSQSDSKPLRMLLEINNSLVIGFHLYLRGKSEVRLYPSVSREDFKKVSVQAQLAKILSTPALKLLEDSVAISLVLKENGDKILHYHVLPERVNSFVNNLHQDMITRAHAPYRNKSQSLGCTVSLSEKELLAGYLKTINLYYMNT

Substance: AY015: cyclic peptide containing a Trp at N terminal position, SEQ ID NO: 372 (WSNFRIARYSNSSC; also: cyclic)
- prenylation modification with OltF (MALDI-TOF-MS) (OltF): Trp at the N terminal position was prenylated

Substance: AY016: cyclic peptide containing a Trp at N terminal position, SEQ ID NO: 373 (WHDYRIARYHTYPC; also: cyclic)
- prenylation modification with OltF (MALDI-TOF-MS) (OltF): Trp at the N terminal position was prenylated

Substance: AY017: cyclic peptide containing a Trp at N terminal position, SEQ ID NO: 374 (WCDVSGRAGYFPC; also: cyclic)
- prenylation modification with OltF (MALDI-TOF-MS) (OltF): Trp at the N terminal position was prenylated

Substance: AY018: cyclic peptide containing a Trp at N terminal position, SEQ ID NO: 375 (WNNRERGSDDDAGGPC; also: cyclic)
- prenylation modification with OltF (MALDI-TOF-MS) (OltF): Trp at the N terminal position was prenylated

Substance: AY019: cyclic peptide containing a Trp at N terminal position, SEQ ID NO: 376 (WSNVSGRAGYFPC; also: cyclic)
- prenylation modification with OltF (MALDI-TOF-MS) (OltF): Trp at the N terminal position was prenylated

Substance: AY020: cyclic peptide containing a Trp at N terminal position, SEQ ID NO: 377 (WSNRERGSDDDAGGPC; also: cyclic)
- prenylation modification with OltF (MALDI-TOF-MS) (OltF): Trp at the N terminal position was prenylated

Substance: Clone-T2 (Ac-[dY]LVRERENTWKVTC; thioether (positions not given here); not fully specified (bridges))
- Peak intensity, The number of prenyl groups added 0 [1]: 1
- Peak intensity, The number of prenyl groups added 1 [1]: 5
- Peak intensity, The number of prenyl groups added 0 (KgpF [2]): 1
- Peak intensity, The number of prenyl groups added 1 (KgpF [2]): 4

Substance: Clone-V3 (Ac-[dY]VWNVKIKPKTTKC; thioether (positions not given here); not fully specified (bridges))
- Peak intensity, The number of prenyl groups added 0 [1]: 1
- Peak intensity, The number of prenyl groups added 1 [1]: 5
- Peak intensity, The number of prenyl groups added 0 (KgpF [2]): 1
- Peak intensity, The number of prenyl groups added 1 (KgpF [2]): 5

Substance: Met2: cyclic peptide SEQ ID NO: 361 from MetAP1 screening, Fmoc solid-phase synthesis, prenylated with KgpF (YKRRHCLPPAWG; also: cyclic, ring not given here, prenylated with KgpF)
- inhibition of the enzymatic activity of MetAP1 (MetAP1): inhibit the enzymatic activity of MetAP1

Substance: YG289-S2iD7: cyclic peptide obtained by translation and synthesis ({CH2CO}-[dY]HDYRIWRYHTYPC; thioether N-14 (inferred))
- prenylation modification with KgpF (MALDI-TOF-MS) (KgpF [3]): modified with a prenyl group
- Peak intensity, The number of prenyl groups added 0 (KgpF v 3.1): 1
- Peak intensity, The number of prenyl groups added 1 (KgpF v 3.1): 5

Substance: YG292-PaktiL5: cyclic peptide obtained by translation and synthesis ({CH2CO}-[dY]IRRPWVPIIYLGC; thioether N-14 (inferred))
- prenylation modification with KgpF (MALDI-TOF-MS) (KgpF [3]): modified with a prenyl group
- Peak intensity, The number of prenyl groups added 0 (KgpF v 3.1): 1
- Peak intensity, The number of prenyl groups added 1 (KgpF v 3.1): 5

Substance: YG297-aMD4: cyclic peptide obtained by translation and synthesis ({CH2CO}-[dY]RQFNRRTHEVWNLDC; thioether N-16 (inferred))
- prenylation modification with KgpF (MALDI-TOF-MS) (KgpF [3]): modified with a prenyl group
- Peak intensity, The number of prenyl groups added 0 (KgpF v 3.1): 1
- Peak intensity, The number of prenyl groups added 1 (KgpF v 3.1): 5
